Results reported in patent publication EP2140864A2 (H. Lundbeck A/S, priority 2001, dated 2002).
Like-named read-outs stand apart in the source and are kept apart here.

Target: T1, human GAL3 receptor (Homo sapiens, UniProt O60755)
T1 construct: expressed in transfected cells
T1 sequence (O60755 1-368): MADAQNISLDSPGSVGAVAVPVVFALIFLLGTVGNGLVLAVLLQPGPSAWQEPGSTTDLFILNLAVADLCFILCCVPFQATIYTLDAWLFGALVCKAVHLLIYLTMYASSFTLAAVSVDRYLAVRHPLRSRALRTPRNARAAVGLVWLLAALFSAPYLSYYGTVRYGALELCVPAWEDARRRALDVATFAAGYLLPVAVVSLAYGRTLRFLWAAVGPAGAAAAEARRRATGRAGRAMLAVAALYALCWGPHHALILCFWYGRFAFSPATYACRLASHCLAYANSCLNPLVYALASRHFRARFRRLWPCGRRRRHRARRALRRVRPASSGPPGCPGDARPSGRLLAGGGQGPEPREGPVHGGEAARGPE
Experiment: Radioligand binding at cloned human GAL3 receptor
Details: cloned human receptor, read-out: Ki GalR3
Method: The present invention provides for a method of determining the binding affinity of a GAL3 antagonist, wherein the GAL3 antagonist is dissolved in a "suitable solvent". A "suitable solvent" means one which permits the measurement of binding affinity of the GAL3 antagonist to the human GAL3 receptor at concentrations less than 1 µM, preferably less than 100 nM. Examples of solvents include, but are not limited to, DMSO, ethanol, N,N-dimethylacetamide, or water. For indolones, the preferred solvent is 3% DMSO (final concentration in the assay). For pyrimidines, the preferred solvent is 1% ethanol/0.09% polypuronic acid F-127 (final concentration in the assay). For any other type of compounds, the preferred solvent is the solvent which permits the measurement of binding affinity of a GAL3 antagonist at the lowest concentration. Once a suitable solvent is ascertained for the binding assay of the human GAL3 receptor, the same solvent is used in assays to determine the binding affinity at the GAL1 receptor, the serotonin transporter, the norepinephrine transporter, and the dopamine transporter. A solvent of 0.4% DMSO is used in the central monoamine oxidase enzyme assay.
The binding properties of the pyrimidines of the present invention were evaluated at the cloned human galanin receptors, GAL1, GAL2, and GAL3, using protocols described herein.
The binding properties of the indolones of the present invention were evaluated at the cloned human galanin receptors, GAL1, GAL2, and GAL3, using protocols described herein.
LM(tk-) cells were stably transfected with the human GAL1 or GAL3 receptor. CHO cells were stably transfected with the human GAL2 receptor.
cDNAs for the human and rat GAL1, and human and rat GAL3 receptors were transfected with a G-418 resistant gene into the mouse fibroblast LM(tk-) cell line by a calcium phosphate transfection method (Cullen, 1987). Stably transfected cells were selected with G-418. Human and rat GAL2 receptors were similarly transfected into CHO cells.
Membranes were harvested from stably transfected LM(tk-) cells. Adherent cells were washed twice in ice-cold phosphate buffered saline (138 mM NaCl, 8.1 mM Na2HPO4, 2.5 mM KCl, 1.2 mM KH2PO4, 0.9 mM CaCl2, 0.5 mM MgCl2, pH 7.4) and lysed by sonication in ice-cold sonication buffer (20 mM Tris-HCl, 5 mM EDTA, pH 7.7). Large particles and debris were cleared by low speed centrifugation (200 x g, 5 min, 4°C). Membranes were collected from the supernatant fraction by centrifugation (32,000 x g, 18 min, 4°C), washed with ice-cold hypotonic buffer, and collected again by centrifugation (32,000 x g, 18 min, 4°C). The final membrane pellet was resuspended by sonication into a small volume of ice-cold binding buffer (-1 ml for every 5 plates: 10 mM NaCl, 20 mM HEPES, 0.22 mM KH2PO4, 1.26 mM CaCl2, 0.81 mM MgSO4, pH 7.4). Protein concentration was measured by the Bradford method (Bradford, 1976) using Bio-Rad Reagent, with bovine serum albumin as a standard. Membranes were held on ice for up to one hour and used fresh, or flash frozen and stored in liquid nitrogen. Membranes were prepared similarly from CHO cells.
Galanin Recentors: Binding assays were performed according to the following published methods: human GAL3 (PCT International Publication No. WO 98/15570), human GAL1 (PCT International Publication No. WO 95/2260), human GAL2 (PCT International Publication No. WO 97/26853).
Binding data were analyzed using nonlinear regression and statistical techniques available in the GraphPAD Prism package (San Diego, CA). Enzymatic assay data were derived from a standard curve of reference compound data.

Compound | Ki (indolones) | Ki (pyrimidines)
O=C1/C(=N\c2ccc(C3CCCCC3)cc2)c2ccccc2N1c1ccsc1 [Example 296, (3Z)-3-[(4-CYCLOHEXYLPHENYL)IMINO]-1-(3-THIENYL)-1,3-DIHYDRO-2H-INDOL-2-ONE] | 82 nM | 
Cc1ccc(Nc2cc(N(C)C)nc(N3CCN(Cc4ccccc4)CC3)n2)cc1Cl [Example 172] |  | 20 nM
CN(C)c1cc(Nc2ccc(Cl)c(Cl)c2)nc(N2CCN(c3ccccn3)CC2)n1 [Example 124] |  | 36 nM
Cc1ccc(Nc2cc(N(C)C)nc(N3CCN(c4ccc(Br)cn4)CC3)n2)cc1 [Example 140] |  | 169 nM
COc1cccc(CCNc2nc(Nc3ccc(C)cc3)cc(N(C)C)n2)c1 [Example 149] |  | 138 nM
Cc1ccc(Nc2cc(N(C)C)nc(N3CCN(c4ncccc4C#N)CC3)n2)cc1 [Example 241] |  | 261 nM
O=C1/C(=N\c2ccc(-c3ccccc3)cc2)c2ccccc2N1c1ccsc1 [Example 265, (3Z)-3-([1,1'-BIPHENYL]-4-YLIMINO)-1-(3-THIENYL)-1,3-DIHYDRO-2H-INDOL-2-ONE] | 80 nM | 
O=C1/C(=N\c2ccc3c(c2)OC(F)(F)O3)c2ccccc2N1c1ccccc1 [Example 298, (3Z)-3-[(2,2-DIFLUORO-1,3-BENZODIOXOL-5-YL)IMINO]-1-PHENYL-1,3-DIHYDRO-2H-INDOL-2-ONE] | 22 nM | 
CCCc1ccccc1Nc1cc(N(C)C)nc(N2CCN(c3ccccn3)CC2)n1 [Example 185, N^4,N^4-dimethyl-N^6-(2-propylphenyl)-2-[4-(2-pyridinyl)-1-piperazinyl]-4,6-pyrimidinediamine] |  | 365 nM
O=C1/C(=N\c2cccc(C(F)(F)F)c2)c2cc(-c3ccccc3)ccc2N1c1ccccc1 [Example 308] | 98 nM | 
COc1cccc(Nc2cc(N(C)C)nc(N(C)CCc3ccccn3)n2)c1 [Example 177] |  | 142 nM
Cc1ccc(Nc2cc(N(C)C)nc(N3CCN(c4cccc(C)c4)CC3)n2)cc1 [Example 86] |  | 227 nM
O=C1/C(=N\c2ccc(-c3cccnc3)cc2)c2ccccc2N1c1ccccc1 [Example 306] | 160 nM | 
CN(C)c1cc(NC2C3(C)CCC(C3)C2(C)C)nc(N2CCN(Cc3ccccc3)CC2)n1 (stereo not shown) [Example 130] |  | 100 nM
CN(C)c1cc(Nc2ccc(Cl)cc2)nc(N2CCN(Cc3ccccc3)CC2)n1 [Example 171] |  | 25 nM
Cc1ccc(Nc2cc(N(C)C)nc(N(C)CCc3ccccc3)n2)cc1 [Example 248] |  | 33 nM
O=C1/C(=N\c2cc(Cl)cc(Cl)c2)c2ccccc2N1Cc1ccccn1 [Example 274] | 174 nM | 
O=C1C(=Nc2cccc(C(F)(F)F)c2)c2ccccc2N1Cc1csc2ccc(Cl)cc12 [Example 111, 1-[(5-CHLORO-1-BENZOTHIEN-3-YL)METHYL]-3-{[3-(TRIFLUOROMETHYL)PHENYL]IMINO}-1,3-DIHYDRO-2H-INDOL-2-ONE] | 1180 nM | 
CN(C)c1cc(N[C@H]2CC3CC[C@]2(C)C3(C)C)nc(N2CCN(Cc3ccccc3)CC2)n1 [Example 167] |  | 50 nM
Cc1ccc(Nc2cc(N(C)C)nc(N3CCN(c4ccccn4)CC3)n2)cc1Nc1ccccn1 [Example 242] |  | 166 nM
O=C1/C(=N\c2ccc(-c3ccsc3)cc2)c2ccccc2N1c1ccccc1 [Example 304, (3Z)-1-PHENYL-3-{[4-(3-THIENYL)PHENYL]IMINO}-1,3-DIHYDRO-2H-INDOL-2-ONE] | 728 nM | 
Cc1ccc(Nc2cc(N(C)C)nc(Nc3ccc(C)cc3)n2)cc1 [Example 56] |  | 794 nM
O=C1/C(=N\c2cccc3ncccc23)c2ccccc2N1c1ccccc1 [Example 282, (3Z)-1-PHENYL-3-(5-QUINOLINYLIMINO)-1,3-DIHYDRO-2H-INDOL-2-ONE] | 333 nM | 
COc1cccc(Nc2cc(N(C)C)nc(N(C)CCc3ccccc3)n2)c1 [Example 251] |  | 54 nM
CN(C)c1cc(Nc2cccc(OCc3ccccc3)c2)nc(N2CCN(c3ccccn3)CC2)n1 [Example 115] |  | 13 nM

Compound | Ki (indolones) | Ki (pyrimidines)
CN(C)c1cc(Nc2cc(F)ccc2Cl)nc(N2CCN(c3ccccn3)CC2)n1 [Example 222] |  | 847 nM
O=C1/C(=N\c2cccc(C(F)(F)F)c2)c2ccccc2N1C1CCOCC1 [Example 300, (3Z)-1-TETRAHYDRO-2H-PYRAN-4-YL-3-{[3-(TRIFLUOROMETHYL)PHENYL]IMINO}-1,3-DIHYDRO-2H-INDOL-2-ONE] | 742 nM | 
CN(C)c1cc(Nc2cccc(Cl)c2Cl)nc(N2CCN(c3ccccn3)CC2)n1 [Example 218] |  | 616 nM
CN(C)c1cc(Nc2cccc(Cl)c2)nc(N2CCN(Cc3ccccc3)CC2)n1 [Example 160] |  | 26 nM
CN(C)c1cc(Nc2ccc3c(c2)CCC3)nc(N2CCN(c3cnccn3)CC2)n1 [Example 180] |  | 151 nM
O=C1C(=Nc2ccc(Cl)nc2)c2ccccc2N1c1ccccc1 (mixture of isomers) [Example 113] | 136 nM | 
Cc1cccc(Nc2cc(N(C)C)nc(N3CCN(c4ccccn4)CC3)n2)c1C [Example 215] |  | 450 nM
Cc1ccc(Nc2cc(N(C)C)nc(Nc3ccccc3)n2)cc1 [Example 54] |  | 132 nM
CN(C)c1cc(Nc2cncc3ccccc23)nc(N2CCN(c3ccccn3)CC2)n1 [Example 120] |  | 664 nM
COc1cccc(Nc2cc(N(C)C)nc(N3CCN(Cc4ccccc4OC)CC3)n2)c1 [Example 166] |  | 263 nM
Cc1ccc(Nc2cc(N(C)C)nc(N3CCN(c4ccccn4)CC3)n2)cc1C [Example 190] |  | 153 nM
Cc1ccc(C(F)(F)F)cc1/N=C1\C(=O)N(c2ccccc2)c2ccccc21 [Example 289, (3Z)-3-{[2-METHYL-5-(TRIFLUOROMETHYL)PHENYL]IMINO}-1-PHENYL-1,3-DIHYDRO-2H-INDOL-2-ONE] | 59 nM | 
COc1cccc(Nc2cc(N(C)C)nc(N3CCN(Cc4ccsc4)CC3)n2)c1 [Example 146] |  | 72 nM
Cc1ccc(Nc2cc(N(C)C)nc(N3CCN(Cc4ccccc4)CC3)n2)cc1 [Example 253] |  | 49 nM
CN(C)c1cc(Nc2ccc(C#N)c(Cl)c2)nc(N2CCN(Cc3ccccc3)CC2)n1 [Example 129] |  | 405 nM
COc1cccc(Nc2cc(N(C)C)nc(N3CCN(c4ccccc4C(F)(F)F)CC3)n2)c1 [Example 246] |  | 270 nM
O=C1/C(=N\c2ccc3cn[nH]c3c2)c2ccccc2N1c1ccccc1 [Example 301, (3Z)-3-(1H-INDAZOL-6-YLIMINO)-1-PHENYL-1,3-DIHYDRO-2H-INDOL-2-ONE] | 875 nM | 
Cc1ccc(Nc2cc(N(C)C)nc(N3CCN(CC4CCCO4)CC3)n2)cc1 (stereo not shown) [Example 154] |  | 441 nM
Cc1ccc(Nc2cc(N3CCCCC3)nc(Nc3ccc(C)cc3)n2)cc1 [Example 4] |  | 627 nM
CCCCCCCc1ccc(Nc2cc(N(C)C)nc(N3CCN(c4ccccn4)CC3)n2)cc1 [Example 189] |  | 26 nM
CN(C)c1cc(Nc2ccc(Br)cc2F)nc(N2CCN(c3ccccn3)CC2)n1 [Example 199] |  | 199 nM
COc1ccccc1CN1CCN(c2nc(Nc3ccc(C)cc3)cc(N(C)C)n2)CC1 [Example 175] |  | 56 nM
CN(C)c1cc(Nc2cnc3ccccc3c2)nc(N2CCN(c3ccccn3)CC2)n1 [Example 132] |  | 618 nM
CN(C)c1cc(Nc2cccc(OCc3ccccc3)c2)nc(N2CCN(c3cccc(Br)c3)CC2)n1 [Example 203] |  | 52 nM
